According to publication PMC8814031, “Synthesis and characterization of novel combretastatin analogues of 1,1-diaryl vinyl sulfones, with antiproliferative potential via in-silico and in-vitro studies” (Scientific Reports, 2022):
Like-named read-outs stand apart in the source and are kept apart here.

Legend:
[1] = system: IMR-32 (neuroblast cancer) cells; assay: MTT antiproliferative assay, IMR-32; assay type: cell-based; conditions: mean ± SEM of three experiments, read-out: IC50 values against selected human cancer cell lines, IMR32
Excerpt: (§1) A panel of four cancer cell lines used for testing the in-vitro cytotoxicity include: MDA-MB-231 derived from human breast adenocarcinoma cells (ATCC No HTB-26), HeLa derived from human cervical cancer cells (ATCC No. CCL-2), A549 derived from human alveolar adenocarcinoma epithelial cells (ATCC No. CCL-185) and IMR-32 derived from human neuroblastoma cell line (ATCC No CCL-127), with a normal cell line HEK-293 (human embryonic kidney cell). These cancer cell lines were obtained from the American Type Culture Collection (ATCC), Manassas, VA, USA, and stored before use.
(§2) The cytotoxicity of synthesized compounds 4A–V were determined in triplicates by 3-[4,5-dimethylthiazol-2-yl]-2,5-diphenyltetrazolium bromide (MTT) assay[51]^,[52]. The pale yellow coloured tetrazolium salt (MTT) reduced to a dark blue water-insoluble formazan by metabolically active cells and the product was measured quantitatively after solubility in DMSO. The absorbance of the soluble formazan is directly proportional to the number of viable cells. A panel of four cancer cell lines were used for testing the in-vitro cytotoxicity. These cell lines were grown in Dulbecco’s modified Eagle’s medium (DMEM) containing non-essential amino acids and 10% FBS. All the cells were maintained under humidified conditions of 5% CO2 atmosphere at 37 °C in a CO2 incubator (Model Galaxy 170S, Eppendorf, USA). The 96-well micro titre plates were incubated for 24 h prior to addition of the experimental compounds. Cells were treated with vehicle alone (DMSO) or compounds (drugs (1 µg/mL) were dissolved in 100 µL DMSO previously) at different concentrations (0.1, 1, 10 and 25 µM) of test compounds for 48 h. The assay was completed with the addition of MTT (5%, 10µL) and incubated for 60 min at 37 °C. The supernatant was aspirated and plates were air dried and the MTT-formazan crystals were dissolved in 100 µL of DMSO.
(§3) The optical density (O.D) was measured at 570 nm using TECAN multimode reader (Infinite® M200Pro, Tecan, Switzerland). The percent cell viability of each treated well of 96 well plate was calculated based on test wells relative to control wells. Doxorubicin was used as positive controls for comparison purpose and 1% DMSO as a vehicle control. The cytotoxicity of test compounds was expressed in terms of IC50 value, which is defined as a concentration of compound that produced 50% reduction absorbance relative to control, and the absorbance at 570 nm wavelength was recorded.

[2] = system: MDA-MB 231 (breast cancer) cells; assay: MTT antiproliferative assay, MDA-MB 231; assay type: cell-based; conditions: mean ± SEM of three experiments, read-out: IC50 values against selected human cancer cell lines, MDA-MB 231
Excerpt: as §1, §2, §3

[3] = system: HeLa (cervical cancer) cells; assay: MTT antiproliferative assay, HeLa; assay type: cell-based; conditions: 48 h, mean ± SEM of three experiments, read-out: IC50 values against selected human cancer cell lines, HeLa
Excerpt: as §1, §2, §3

[4] = system: HEK-293 (human embryonic kidney normal cell line); assay: MTT cytotoxicity assay, normal cell line HEK-293; assay type: cell-based; conditions: for IC50: normal cell line
Excerpt: as §1, §2, §3

A549 (lung cancer) cells = assay: MTT antiproliferative assay, A549; assay type: cell-based; conditions: Homo sapiens, 48 h, mean ± SEM of three experiments, read-out: IC50 values against selected human cancer cell lines, A549
Procedure: These cancer cell lines were obtained from the American Type Culture Collection (ATCC), Manassas, VA, USA, and stored before use.
The pale yellow coloured tetrazolium salt (MTT) reduced to a dark blue water-insoluble formazan by metabolically active cells and the product was measured quantitatively after solubility in DMSO. The absorbance of the soluble formazan is directly proportional to the number of viable cells. A panel of four cancer cell lines were used for testing the in-vitro cytotoxicity. These cell lines were grown in Dulbecco’s modified Eagle’s medium (DMEM) containing non-essential amino acids and 10% FBS. […] The 96-well micro titre plates were incubated for 24 h prior to addition of the experimental compounds. […] The supernatant was aspirated and plates were air dried and the MTT-formazan crystals were dissolved in 100 µL of DMSO.
The optical density (O.D) was measured at 570 nm using TECAN multimode reader (Infinite® M200Pro, Tecan, Switzerland). The percent cell viability of each treated well of 96 well plate was calculated based on test wells relative to control wells. Doxorubicin was used as positive controls for comparison purpose and 1% DMSO as a vehicle control.

Compound	IC50 ([1]; Homo sapiens, IMR-32, 48 h) [µM]	melting point [°C]	IC50 ([2]; Homo sapiens, MDA-MB-231, 48 h) [µM]	IC50 ([3]; Homo sapiens, HeLa) [µM]	IC50 ([4]; Homo sapiens, HEK293, 48 h) [µM]	IC50 (A549 (lung cancer) cells) [µM]	IC50 ([1]; 48 h) [µM]	IC50 ([2]; 48 h) [µM]	IC50 [3] [µM]	IC50 ([4]; 48 h) [µM]	Cytotoxicity towards normal cell line HEK-293 (in words) ([4]; normal cells)
COc1cc(/C(=C\S(=O)(=O)c2ccc(C)cc2)c2ccccc2)cc(OC)c1OC [Compound 4A, (Z)-1,2,3-trimethoxy-5-(1-phenyl-2-tosylvinyl)benzene]	6.4 ± 0.82	139 to 141	19.4 ± 1.72	9.4 ± 0.72	> 25	6.39 ± 0.68	–	–	–	–	–
COc1ccc(/C(=C/S(=O)(=O)c2ccc(C)cc2)c2cc(OC)c(OC)c(OC)c2)cc1 [Compound 4B]	4.1 ± 0.96	124 to 126	14.6 ± 0.85	8.59 ± 0.58	> 25	4.68 ± 0.46	–	–	–	–	–
COc1ccc(/C(=C/S(=O)(=O)c2ccc(C)cc2)c2cc(OC)c(OC)c(OC)c2)c(OC)c1 [Compound 4C]	7.04 ± 0.83	107 to 109	13.6 ± 1.56	10.6 ± 0.56	> 25	7.04 ± 0.08	–	–	–	–	–
COc1ccc(/C(=C/S(=O)(=O)c2ccc(C)cc2)c2cc(OC)c(OC)c(OC)c2)cc1OC [Compound 4D]	6.25 ± 0.03	173 to 175	14.9 ± 1.54	10.9 ± 0.54	> 25	5.52 ± 0.06	–	–	–	–	–
COc1cc(OC)cc(/C(=C/S(=O)(=O)c2ccc(C)cc2)c2cc(OC)c(OC)c(OC)c2)c1 [Compound 4E]	6.23 ± 0.09	163 to 165	14.1 ± 1.51	11.1 ± 0.51	> 25	5.32 ± 0.92	–	–	–	–	–
COc1cc(/C(=C\S(=O)(=O)c2ccc(C)cc2)c2ccc(F)cc2)cc(OC)c1OC [Compound 4G]	7.29 ± 0.46	141 to 143	13.2 ± 1.49	8.73 ± 0.49	> 25	6.92 ± 0.65	–	–	–	–	–
COc1cc(/C(=C\S(=O)(=O)c2ccc(C)cc2)c2ccc(C(F)(F)F)cc2)cc(OC)c1OC [Compound 4H]	7.48 ± 0.13	125 to 127	15.9 ± 1.44	9.62 ± 0.44	> 25	6.84 ± 0.7	–	–	–	–	–
COc1cc(/C(=C\S(=O)(=O)c2ccc(C)cc2)c2ccc(F)cc2F)cc(OC)c1OC [Compound 4I]	15.1 ± 0.16	113 to 115	12.7 ± 0.4	9.46 ± 0.4	> 25	13.1 ± 0.86	–	–	–	–	–
COc1cc(/C(=C\S(=O)(=O)c2ccc(C)cc2)c2ccc(F)c(F)c2)cc(OC)c1OC [Compound 4J]	12.03 ± 0.02	140 to 142	13.1 ± 0.92	9.98 ± 0.42	> 25	11.3 ± 0.83	–	–	–	–	–
CCOc1ccc(F)c(/C(=C/S(=O)(=O)c2ccc(C)cc2)c2cc(OC)c(OC)c(OC)c2)c1 [Compound 4K]	8.06 ± 0.09	125 to 127	13.6 ± 0.89	9.5 ± 0.49	> 25	7.02 ± 0.84	–	–	–	–	–
COc1cc(/C(=C\S(=O)(=O)c2ccc(C)cc2)c2ccc(F)c(Cl)c2)cc(OC)c1OC [Compound 4L]	5.12 ± 0.36	123 to 125	13.4 ± 1.49	8.74 ± 0.49	> 25	8.54 ± 0.85	–	–	–	–	–
COc1cc(/C(=C\S(=O)(=O)c2ccc(C)cc2)c2ccc(Cl)cc2)cc(OC)c1OC [Compound 4M]	6.79 ± 0.44	96 to 98	11.1 ± 1.5	–	> 25	5.12 ± 0.08	–	–	–	–	–
COc1cc(/C(=C\S(=O)(=O)c2ccc(C)cc2)c2ccc(Cl)c(Cl)c2)cc(OC)c1OC [Compound 4N]	9.14 ± 0.84	151 to 153	9.85 ± 0.72	9.64 ± 0.96	> 25	6.79 ± 0.19	–	–	–	–	–
COc1cc(/C(=C\S(=O)(=O)c2ccc(C)cc2)c2ccc(C#N)cc2)cc(OC)c1OC [Compound 4O]	9.08 ± 0.07	165 to 167	12.4 ± 1.67	9.83 ± 0.76	> 25	9.14 ± 0.91	–	–	–	–	–
COc1cc(/C(=C\S(=O)(=O)c2ccc(C)cc2)c2cccc(C(F)(F)F)c2F)cc(OC)c1OC [Compound 4Q]	–	–	–	–	–	–	7.46 ± 0.61	12.2 ± 1.61	10.7 ± 0.74	> 25	–
COc1cc(/C(=C\S(=O)(=O)c2ccc(C)cc2)c2cc(C)ccc2F)cc(OC)c1OC [Compound 4R]	6.14 ± 0.03	–	12.2 ± 0.54	10.5 ± 1.03	> 25	7.46 ± 0.07	–	–	–	–	–
COc1cc(/C(=C\S(=O)(=O)c2ccc(C)cc2)c2ccc(C)c(F)c2)cc(OC)c1OC [Compound 4T]	6.29 ± 0.07	124 to 126	10.4 ± 1.55	8.39 ± 0.99	> 25	7.22 ± 0.81	–	–	–	–	–
COc1cc(/C(=C\S(=O)(=O)c2ccc(C)cc2)c2ccc(-c3ccccc3)cc2)cc(OC)c1OC [Compound 4U]	11.8 ± 0.13	132 to 134	23.9 ± 1.56	11.7 ± 0.81	> 25	11.1 ± 0.78	–	–	–	–	–
COc1cc(C#CS(=O)(=O)c2ccc(C)cc2)cc(OC)c1OC [Compound 4V]	–	119 to 121	–	–	–	–	–	–	–	–	showed some level of cytotoxicity
COc1cccc2c1C(=O)c1c(O)c3c(c(O)c1C2=O)C[C@@](O)(C(=O)CO)C[C@@H]3O[C@H]1C[C@H](N)[C@H](O)[C@H](C)O1 [Doxorubicin, reference compound]	0.23	–	0.89 ± 0.02	1.68 ± 0.24	–	–	–	–	–	–	–
